# Reference: ChEMBL document CHEMBL1129537, “The squalestatins: inhibitors of squalene synthase. Enzyme inhibitory activities and in vivo evaluation of C3-modified analogues” (J Med Chem, 1996)
# Assays:
# [1] = target: T1, Squalene synthase (Rattus norvegicus, UniProt Q02769); experiment: In vitro inhibitory activity against Squalene synthase from rats
# T1 sequence (Q02769 whole entry): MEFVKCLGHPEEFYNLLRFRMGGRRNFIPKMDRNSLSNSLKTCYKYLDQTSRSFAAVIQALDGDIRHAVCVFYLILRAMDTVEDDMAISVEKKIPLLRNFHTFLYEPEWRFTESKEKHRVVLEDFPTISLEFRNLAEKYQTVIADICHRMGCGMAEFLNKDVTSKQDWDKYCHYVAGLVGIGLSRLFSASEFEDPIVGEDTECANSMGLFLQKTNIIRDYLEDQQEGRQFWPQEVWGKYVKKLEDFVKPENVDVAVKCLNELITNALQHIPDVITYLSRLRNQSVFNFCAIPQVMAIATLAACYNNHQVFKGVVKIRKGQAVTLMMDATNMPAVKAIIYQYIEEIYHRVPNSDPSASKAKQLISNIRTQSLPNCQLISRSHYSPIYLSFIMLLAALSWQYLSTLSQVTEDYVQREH
# [2] = Effect on % of cholesterol reduction measured on serum cholesterol level in marmosets after single iv dose 10 mg/kg on day 3; assay type: functional, Callitrichinae
# [3] = Effect on % of cholesterol reduction measured on serum cholesterol level in marmosets after single iv dose 10 mg/kg on day 7; assay type: functional, Callitrichinae
# [4] = Effect on % of cholesterol reduction measured on serum cholesterol level in marmosets after single iv dose 16.7 mg/kg on day 2; assay type: functional, Callitrichinae
# [5] = Effect on % of cholesterol reduction measured on serum cholesterol level in marmosets after single iv dose 16.7 mg/kg on day 3; assay type: functional, Callitrichinae
# [6] = Effect on % of cholesterol reduction measured on serum cholesterol level in marmosets after single iv dose 30 mg/kg on day 2; assay type: functional, Callitrichinae
# [7] = Effect on % of cholesterol reduction measured on serum cholesterol level in marmosets after single iv dose 30 mg/kg on day 3; assay type: functional, Callitrichinae
# [8] = Effect on % of cholesterol reduction measured on serum cholesterol level in marmosets after single iv dose 30 mg/kg on day 7; assay type: functional, Callitrichinae
# [9] = Effect on % of cholesterol reduction measured on serum cholesterol level in marmosets after single iv dose 50 mg/kg on day 2; assay type: functional, Callitrichinae
# [10] = Effect on % of cholesterol reduction measured on serum cholesterol level in marmosets after single iv dose 50 mg/kg on day 3; assay type: functional, Callitrichinae
# [11] = Effect on % of cholesterol reduction measured on serum cholesterol level in marmosets after single iv dose 50 mg/kg on day 7; assay type: functional, Callitrichinae
# [12] = Effect on % of cholesterol reduction measured on serum cholesterol level in marmosets after single iv dose (3 times a day for 3 days) 16.7 mg/kg on day 7; assay type: functional, Callitrichinae
# [13] = Effect on % of cholesterol reduction measured on serum cholesterol level in marmosets after single iv dose 10 mg/kg on day 2; assay type: functional, Callitrichinae
Structure (SMILES),IC50 [1],other results
C=C(CC[C@]12O[C@H](CNC(N)=O)[C@@](O)(C(=O)O)[C@](C(=O)O)(O1)[C@H](OC(=O)/C=C/[C@@H](C)C[C@@H](C)CC)[C@H]2O)[C@@H](OC(C)=O)[C@H](C)Cc1ccccc1,3 nM,
C=C(CC[C@]12O[C@H](COC)[C@@](O)(C(=O)O)[C@](C(=O)O)(O1)[C@H](O)[C@H]2O)[C@@H](OC(C)=O)[C@H](C)Cc1ccccc1,> 1000 nM,
C=C(CC[C@]12O[C@H](CN)[C@@](O)(C(=O)O)[C@](C(=O)O)(O1)[C@H](O)[C@H]2O)[C@@H](OC(C)=O)[C@H](C)Cc1ccccc1,> 1000 nM,
C=C(CC[C@]12O[C@H](CN)[C@@](O)(C(=O)O)[C@](C(=O)O)(O1)[C@H](OC(=O)/C=C/[C@@H](C)C[C@@H](C)CC)[C@H]2O)[C@@H](OC(C)=O)[C@H](C)Cc1ccccc1,4 nM,
C=C(CC[C@]12O[C@H](CN(C)C)[C@@](O)(C(=O)O)[C@](C(=O)O)(O1)[C@H](OC(=O)/C=C/[C@@H](C)C[C@@H](C)CC)[C@H]2O)[C@@H](OC(C)=O)[C@H](C)Cc1ccccc1,10 nM,
C=C(CC[C@]12O[C@H](COC)[C@@](O)(C(=O)O)[C@](C(=O)O)(O1)[C@H](OC(=O)/C=C/[C@@H](C)C[C@@H](C)CC)[C@H]2O)[C@@H](OC(C)=O)[C@H](C)Cc1ccccc1,13 nM,
C=C(CC[C@]12O[C@H](CNC(N)=O)[C@@](O)(C(=O)O)[C@](C(=O)O)(O1)[C@H](O)[C@H]2O)[C@@H](OC(C)=O)[C@H](C)Cc1ccccc1,> 1000 nM,
C=C(CC[C@]12O[C@H](CNS(=O)(=O)C(F)(F)F)[C@@](O)(C(=O)O)[C@](C(=O)O)(O1)[C@H](O)[C@H]2O)[C@@H](OC(C)=O)[C@H](C)Cc1ccccc1,1000 nM,
C=C(CC[C@]12O[C@H](CN=C(N)N)[C@@](O)(C(=O)O)[C@](C(=O)O)(O1)[C@H](OC(=O)/C=C/[C@@H](C)C[C@@H](C)CC)[C@H]2O)[C@@H](OC(C)=O)[C@H](C)Cc1ccccc1,65 nM,
C=C(CC[C@]12O[C@H](C(C)=O)[C@@](O)(C(=O)O)[C@](C(=O)O)(O1)[C@H](OC(=O)/C=C/[C@@H](C)C[C@@H](C)CC)[C@H]2O)[C@@H](OC(C)=O)[C@H](C)Cc1ccccc1,11 nM,
C=C(CC[C@]12O[C@H](CO)[C@@](O)(C(=O)O)[C@](C(=O)O)(O1)[C@H](OC(=O)/C=C/[C@@H](C)C[C@@H](C)CC)[C@H]2O)[C@@H](OC(C)=O)[C@H](C)Cc1ccccc1,,Reduction [2]: 2%; Reduction [3]: 14%; Reduction [4]: 47%; Reduction [5]: 62%; Reduction [6]: 30%; Reduction [7]: 20%; Reduction [8]: 16%; Reduction [9]: 31%; Reduction [10]: 21%; Reduction [11]: 28%; Reduction [12]: 32%; Reduction [13]: 5%
C=C(CC[C@]12O[C@H](C(C)=O)[C@@](O)(C(=O)O)[C@](C(=O)O)(O1)[C@H](O)[C@H]2O)[C@@H](OC(C)=O)[C@H](C)Cc1ccccc1,500 nM,
C=C(CC[C@]12O[C@H](CNS(=O)(=O)C(F)(F)F)[C@@](O)(C(=O)O)[C@](C(=O)O)(O1)[C@H](OC(=O)/C=C/[C@@H](C)C[C@@H](C)CC)[C@H]2O)[C@@H](OC(C)=O)[C@H](C)Cc1ccccc1,60 nM,
